For 28 compounds, IC50 results are on record in patent US20120165309A1, “HETERO RING DERIVATIVE” (Astellas Pharma Inc., priority 2009, published 2012).

For one experiment, the target named is T1, human PI3Kδ enzyme (Homo sapiens, UniProt O00329).
T1 construct: purchased Millipore Corporation 14-604
The experiment can be described thus: PI3Kδ enzyme inhibitory activity (PI3-Kinase HTRF Assay kit). Type of experiment: biochemical. The conditions noted are these: human PI3Kδ 10 ng/well, ATP 30 μM, PIP2 10 μM, room temperature 30 minutes. As to the method:
1. PI3Kδ Enzyme Inhibitory Activity
For the experiment, a PI3-Kinase HTRF Assay kit (Millipore Corporation, Catalogue No. 33-016) and a human PI3Kδ enzyme (Millipore Corporation, Catalogue No. 14-604) were used. The measurement method was in accordance with the appended instructions. The overview thereof is as follows.
PI3Kδ (10 ng/well), phosphatidylinositol-4,5-bisphosphate (10 μM), ATP (30 μM), and the test compound were mixed in a 384-well plate (total 20 μL), and incubated at room temperature for 30 minutes. EDTA and biotinylated phosphatidylinositol-3,4,5-triphosphate were added thereto to stop the reaction. Thereafter, a Europium labeled anti-GST antibody, a GST bond GRP1 PH domain, and streptavidin-APC were added thereto, followed by incubation overnight. An HTRF ratio was measured using an HTRF plate reader. The IC50 value of the compound was calculated, taking the inhibition rate without addition of the enzyme as 100% and the inhibition rate without addition of the test compound as 0%, by means of a logistic method.
(§1) In the Table, Ex represents Example Compound No. as described later, PI3Kδ represents the IC50 value (nM) of a PI3Kδ enzyme inhibitory activity, and PI3Kα represents the IC50 value (nM) of a PI3Kα enzyme inhibitory activity.
In general terms: Time-resolved FRET reads energy transfer from a long-lived donor to a nearby acceptor.

The target of a further experiment is T2, Human PI3Kα (Homo sapiens, UniProt P42336).
T2 construct: purchased Millipore Corporation 14-602
T2 sequence (P42336 whole entry): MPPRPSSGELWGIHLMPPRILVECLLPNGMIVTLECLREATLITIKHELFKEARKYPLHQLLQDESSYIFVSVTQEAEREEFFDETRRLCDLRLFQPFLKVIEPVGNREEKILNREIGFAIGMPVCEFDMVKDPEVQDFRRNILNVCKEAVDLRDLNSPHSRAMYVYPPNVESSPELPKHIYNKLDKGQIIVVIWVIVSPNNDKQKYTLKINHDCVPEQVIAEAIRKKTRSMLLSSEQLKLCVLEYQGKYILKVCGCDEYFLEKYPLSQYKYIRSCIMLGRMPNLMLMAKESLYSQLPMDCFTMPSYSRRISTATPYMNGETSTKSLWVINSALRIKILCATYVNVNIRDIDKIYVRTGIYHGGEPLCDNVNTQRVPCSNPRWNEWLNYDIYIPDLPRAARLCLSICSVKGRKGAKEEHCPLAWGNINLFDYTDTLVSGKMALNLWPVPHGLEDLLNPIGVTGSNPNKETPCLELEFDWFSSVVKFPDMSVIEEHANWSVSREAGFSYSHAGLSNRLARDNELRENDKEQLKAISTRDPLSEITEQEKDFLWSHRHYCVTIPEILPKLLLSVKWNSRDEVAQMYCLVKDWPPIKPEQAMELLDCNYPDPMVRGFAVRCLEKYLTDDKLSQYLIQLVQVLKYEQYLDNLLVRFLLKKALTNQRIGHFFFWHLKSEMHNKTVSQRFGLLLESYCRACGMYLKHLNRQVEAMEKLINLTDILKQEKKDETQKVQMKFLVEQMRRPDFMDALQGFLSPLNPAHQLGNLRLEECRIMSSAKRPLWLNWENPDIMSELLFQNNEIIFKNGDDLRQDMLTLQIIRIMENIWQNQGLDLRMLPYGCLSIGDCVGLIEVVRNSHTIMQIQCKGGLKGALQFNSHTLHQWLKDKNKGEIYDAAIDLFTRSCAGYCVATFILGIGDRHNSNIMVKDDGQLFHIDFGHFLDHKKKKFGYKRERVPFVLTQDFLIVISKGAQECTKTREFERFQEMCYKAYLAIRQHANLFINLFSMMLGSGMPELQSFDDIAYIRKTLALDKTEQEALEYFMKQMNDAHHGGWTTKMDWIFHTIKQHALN
T2 sequence (P27986 whole entry partner): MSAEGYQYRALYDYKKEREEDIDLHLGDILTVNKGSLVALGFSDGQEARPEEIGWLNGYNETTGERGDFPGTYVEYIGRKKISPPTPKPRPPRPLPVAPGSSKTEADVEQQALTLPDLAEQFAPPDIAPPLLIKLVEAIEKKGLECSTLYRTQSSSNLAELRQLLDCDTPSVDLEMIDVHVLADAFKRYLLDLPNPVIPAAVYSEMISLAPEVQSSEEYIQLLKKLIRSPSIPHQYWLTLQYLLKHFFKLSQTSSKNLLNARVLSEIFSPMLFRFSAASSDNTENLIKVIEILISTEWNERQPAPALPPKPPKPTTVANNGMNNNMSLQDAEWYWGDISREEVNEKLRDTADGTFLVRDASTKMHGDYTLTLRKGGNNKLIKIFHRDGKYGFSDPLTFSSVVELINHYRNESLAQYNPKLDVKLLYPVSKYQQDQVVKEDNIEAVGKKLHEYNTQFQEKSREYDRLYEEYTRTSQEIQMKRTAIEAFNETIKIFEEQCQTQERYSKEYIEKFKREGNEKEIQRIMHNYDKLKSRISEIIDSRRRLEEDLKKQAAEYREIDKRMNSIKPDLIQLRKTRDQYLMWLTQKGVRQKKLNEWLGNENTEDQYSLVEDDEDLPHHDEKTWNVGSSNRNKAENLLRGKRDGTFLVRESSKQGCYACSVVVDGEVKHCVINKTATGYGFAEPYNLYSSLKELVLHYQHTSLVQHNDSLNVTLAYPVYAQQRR
The experiment can be described thus: PI3Kα enzyme inhibitory activity (Kinase-Glo Plus luminescence). It counts as biochemical. To be noted: Human PI3Kα 12 ng/well, phosphatidylinositol 0.2 μg/well, 37° C. for 3 hours. As to the method: 2. PI3Kα Enzyme Inhibitory Activity
Human PI3Kα (12 ng/well, Millipore Corporation, Catalogue No. 14-602), phosphatidylinositol (0.2 μg/well), and the test compound were mixed in a 384-well plate in a reaction buffer (50 mM Hepes, 10 mM NaCl, 10 mM MgCl2, 2 mM EGTA, 2 mM DTT, pH 7.3) (total 10 μl), and incubated at 37° C. for 3 hours. After the reaction, 10 μL of a Kinase-Glo Plus reagent (Promega, Catalogue No. V3772) was added thereto, and a luminescence was measured with a luminometer. The IC50 value of the compound was calculated, taking the inhibition rate without addition of the enzyme as 100% and the inhibition rate without addition of the test compound as 0%, by a logistic method.
as §1

Experiment [1] concerns Spleen cells (B cell proliferation). The experiment can be described thus: Rat B cell proliferation inhibition test (anti-rat IgM, [3H]thymidine). It counts as cell-based. To be noted: anti-rat IgM 3 μg/well, 48 hours culture, [3H]thymidine uptake. As to the method:
4. Rat B Cell Proliferation Inhibition Test
Spleen cells (1.0×10^5 cells/well) prepared from male LEW/CrlCrlj rats (Charles River Laboratories, Japan, Inc.), mouse F(ab′)2 fragment anti-rat IgM (3 μg/well, SouthernBiotech Associates, Inc., Catalogue No. 3082-14) and the test compound dissolved in DMSO (final DMSO concentration 0.1%) were mixed in a 96-well plate using a 10% FCS-containing RPMI-1640 culture medium (total 200 μL). They were cultured in a CO2 incubator for 48 hours and [^3H]thymidine (925 GBq/mmol, Moravek Biochemicals, Inc., Catalogue No. MT6038) was added thereto at 0.037 MBq/well at 4 hours before completion of culture. Cells were harvested in a GF/C glass filter using a cell harvester, and a radioactivity on the filter was measured using a liquid scintillation counter. The IC50 value of the compound was calculated, taking the dpm (disintegration per minute) without addition of IgM as an inhibition rate of 100% and the dpm without addition of the test compound as an inhibition rate of 0%, by a logistic method.

T1 sequence (O00329 whole entry): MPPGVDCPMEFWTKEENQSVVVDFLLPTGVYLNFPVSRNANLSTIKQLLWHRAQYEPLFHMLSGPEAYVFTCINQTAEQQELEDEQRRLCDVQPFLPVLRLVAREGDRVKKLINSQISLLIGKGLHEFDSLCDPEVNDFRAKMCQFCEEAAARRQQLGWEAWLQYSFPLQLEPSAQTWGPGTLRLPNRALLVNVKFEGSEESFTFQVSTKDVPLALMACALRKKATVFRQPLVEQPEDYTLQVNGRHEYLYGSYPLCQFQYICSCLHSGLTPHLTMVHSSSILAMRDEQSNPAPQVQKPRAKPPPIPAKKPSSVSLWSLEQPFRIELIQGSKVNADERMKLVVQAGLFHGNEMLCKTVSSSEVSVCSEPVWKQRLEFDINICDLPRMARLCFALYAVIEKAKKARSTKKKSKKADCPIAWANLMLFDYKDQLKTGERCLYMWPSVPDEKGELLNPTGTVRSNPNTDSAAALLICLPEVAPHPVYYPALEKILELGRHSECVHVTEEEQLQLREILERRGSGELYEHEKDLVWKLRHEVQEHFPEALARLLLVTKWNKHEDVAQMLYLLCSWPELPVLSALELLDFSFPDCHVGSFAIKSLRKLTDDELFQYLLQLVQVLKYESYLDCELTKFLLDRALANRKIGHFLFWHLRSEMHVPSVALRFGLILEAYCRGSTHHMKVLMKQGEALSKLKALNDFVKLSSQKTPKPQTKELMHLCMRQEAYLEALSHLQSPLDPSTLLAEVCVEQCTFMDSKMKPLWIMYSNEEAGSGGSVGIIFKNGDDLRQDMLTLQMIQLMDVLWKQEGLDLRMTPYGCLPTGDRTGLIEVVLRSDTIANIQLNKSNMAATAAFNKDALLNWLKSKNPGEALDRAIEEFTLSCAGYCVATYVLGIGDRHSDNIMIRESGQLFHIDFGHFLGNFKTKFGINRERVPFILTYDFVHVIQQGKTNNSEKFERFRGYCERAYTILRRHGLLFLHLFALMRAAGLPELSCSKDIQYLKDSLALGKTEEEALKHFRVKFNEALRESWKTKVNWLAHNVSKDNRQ
T1 sequence (P27986 whole entry partner): as the sequence (P27986 whole entry partner) above

With `CC(C)=CCN(CC(C)(C)O)[C@H]1CC[C@H](CNc2nc(N3CCOCC3)cc(-n3c(C(F)F)nc4ccccc43)n2)CC1` [Example 449], the IC50 – broadly, the concentration that inhibits the measured activity by half – on human PI3Kδ enzyme was found to be 0.014 µM; on Human PI3Kα, 1.3 µM; in experiment [1], 0.0022 µM.

`CCCN(CCC)[C@H]1CC[C@H](CNc2nc(N3CCOCC3)cc(-n3c(C(F)F)nc4ccccc43)n2)CC1` [Example 450]: the IC50 against human PI3Kδ enzyme was 0.014 µM; at Human PI3Kα, 3.5 µM; in experiment [1], 0.0021 µM.

Turning to `COC[C@@H]1CCCN1C1CCC(CNc2nc(N3CCOCC3)cc(-n3c(C(F)F)nc4ccccc43)n2)CC1` (stereo partly drawn) [Example 456], the IC50 is 0.013 µM at human PI3Kδ enzyme, 1.8 µM at Human PI3Kα and 0.0011 µM in experiment [1].

As for `FC(F)c1nc2ccccc2n1-c1cc(NC[C@H]2CC[C@H](N3CC[C@H](F)C3)CC2)nc(N2CCOCC2)n1` [Example 461], the IC50 on human PI3Kδ enzyme turned out to be 0.016 µM; at Human PI3Kα, 3.8 µM; in experiment [1] it was 0.0011 µM.

As for `CCN(C(C)C(C)(C)O)[C@H]1CC[C@H](CNc2nc(N3CCOCC3)cc(-n3c(C(F)F)nc4ccccc43)n2)CC1` (stereo partly drawn) [Example 471], the IC50 against human PI3Kδ enzyme was found to be 0.0081 µM; at Human PI3Kα it was 1.7 µM; in experiment [1], 0.0013 µM.

Turning to `O=C(CN1CCCC1)N[C@H]1CC[C@H](Oc2cc(-n3c(C(F)F)nc4ccccc43)nc(N3CCOCC3)n2)CC1` [Example 473], the IC50 stood at 0.03 µM on human PI3Kδ enzyme, 9.9 µM at Human PI3Kα and 0.004 µM in experiment [1].

With `FC[C@@H]1CCCN1[C@H]1CC[C@H](COc2cc(-n3c(C(F)F)nc4ccccc43)nc(N3CCOCC3)n2)CC1` [Example 482], the 50% inhibitory concentration (IC50) at human PI3Kδ enzyme was 0.0046 µM; at Human PI3Kα it was 3.4 µM; in experiment [1], 0.0046 µM.

On to `FC[C@@H]1CCCN1[C@H]1CC[C@H](CNc2cc(-n3c(C(F)F)nc4ccccc43)nc(N3CCOCC3)n2)CC1` [Example 484], for which the IC50 against human PI3Kδ enzyme worked out at 0.0015 µM; on Human PI3Kα, 2.6 µM; in experiment [1] it was 0.0022 µM.

Regarding `CC(C)(O)[C@@H]1CCCN1C1CCC(COc2cc(-n3c(C(F)F)nc4ccccc43)nc(N3CCOCC3)n2)CC1` (stereo partly drawn) [Example 486], the results for the IC50 (against human PI3Kδ enzyme; on Human PI3Kα; in experiment [1]) were 0.0098 µM, 3.6 µM and 0.0036 µM, respectively.

`CC(C)(O)[C@@H]1CCCN1C1CCC(CNc2cc(-n3c(C(F)F)nc4ccccc43)nc(N3CCOCC3)n2)CC1` (stereo partly drawn) [Example 487]: the IC50 at human PI3Kδ enzyme was found to be 0.0079 µM; on Human PI3Kα, 4.4 µM; in experiment [1], 0.0014 µM.

As to `CN(CC(C)(C)O)[C@H]1CC[C@H](COc2cc(-n3c(C(F)F)nc4ccccc43)nc(N3CCOCC3)n2)CC1` [Example 488], the IC50 on human PI3Kδ enzyme was found to be 0.03 µM; at Human PI3Kα it was 5.6 µM; in experiment [1], 0.0028 µM.

Consider `CC(C)(O)[C@@H]1CCCN1C1CCC(CNc2nc(N3CCOCC3)cc(-n3c(C(F)F)nc4ccccc43)n2)CC1` (stereo partly drawn) [Example 490], for which the results for the IC50 (against human PI3Kδ enzyme; on Human PI3Kα; in experiment [1]) were 0.0094 µM, 1.6 µM and 0.00076 µM, respectively.

Take `C=CCN(C(C)COC)[C@H]1CC[C@H](CNc2nc(N3CCOC[C@@H]3C)cc(-n3c(C(F)F)nc4ccccc43)n2)CC1` (stereo partly drawn) [Example 491]: the IC50 was found to be 0.0045 µM against human PI3Kδ enzyme, 0.57 µM on Human PI3Kα and 0.0018 µM in experiment [1].

As for `CN(CC(C)(C)O)[C@H]1CC[C@H](CNc2cc(-n3c(C(F)F)nc4ccccc43)nc(N3CCOCC3)n2)CC1` [Example 495], the IC50 amounted to 0.014 µM on human PI3Kδ enzyme, 6.7 µM at Human PI3Kα and 0.0017 µM in experiment [1].

Regarding `COCCN[C@H]1CC[C@H](CNc2cc(-n3c(C(F)F)nc4ccccc43)nc(N3CCOCC3)n2)CC1` [Example 496], the figures for the IC50 (against human PI3Kδ enzyme; at Human PI3Kα; in experiment [1]) were 0.017 µM, 7.6 µM and 0.0017 µM, respectively.

For the compound `CN1CCC[C@H]1C(=O)N[C@H]1CC[C@H](Oc2cc(-n3c(C(F)F)nc4ccccc43)nc(N3CCOCC3)n2)CC1` [Example 500], the half-inhibitory concentration (IC50) against human PI3Kδ enzyme is 0.014 µM; on Human PI3Kα, more than 10 µM; in experiment [1], 0.0027 µM.

`CC(N(C)[C@H]1CC[C@H](CNc2nc(N3CCOC[C@@H]3C)cc(-n3c(C(F)F)nc4ccccc43)n2)CC1)C(C)(C)O` (stereo partly drawn) [Example 505]: the IC50 against human PI3Kδ enzyme was determined as 0.0041 µM; on Human PI3Kα it was 0.45 µM; in experiment [1], 0.00046 µM.

Consider `CC(N(C)[C@H]1CC[C@H](CNc2nc(N3CCOC[C@H]3C)cc(-n3c(C(F)F)nc4ccccc43)n2)CC1)C(C)(C)O` (stereo partly drawn) [Example 506], for which the IC50 came to 0.0043 µM against human PI3Kδ enzyme, 0.59 µM on Human PI3Kα and 0.00075 µM in experiment [1].

In the case of `COCC(C)N(C)[C@H]1CC[C@H](CNc2nc(N3CCOC[C@H]3C)cc(-n3c(C(F)F)nc4ccccc43)n2)CC1` (stereo partly drawn) [Example 507], the IC50 was 0.0049 µM against human PI3Kδ enzyme, 0.49 µM at Human PI3Kα and 0.00038 µM in experiment [1].

Regarding `CCN(C(C)COC)[C@H]1CC[C@H](CNc2nc(N3CCOC[C@H]3C)cc(-n3c(C(F)F)nc4ccccc43)n2)CC1` (stereo partly drawn) [Example 508], the IC50 on human PI3Kδ enzyme was 0.0046 µM; at Human PI3Kα it was 0.62 µM; in experiment [1], 0.00037 µM.

In the case of `FC[C@H]1CCCN1[C@H]1CC[C@@H](CNc2cc(-n3c(C(F)F)nc4ccccc43)nc(N3CCOCC3)n2)CC1` [Example 510], the IC50 was 0.036 µM on human PI3Kδ enzyme, more than 10 µM at Human PI3Kα and 0.018 µM in experiment [1].

`FC[C@H]1CCCN1[C@H]1CC[C@H](CNc2cc(-n3c(C(F)F)nc4ccccc43)nc(N3CCOCC3)n2)CC1` [Example 511]: the figures for the IC50 (against human PI3Kδ enzyme; at Human PI3Kα; in experiment [1]) were 0.0047 µM, 2 µM and 0.0012 µM, respectively.

For `COC[C@@H]1CCCN1[C@H]1CC[C@@H](CNc2cc(-n3c(C(F)F)nc4ccccc43)nc(N3CCOCC3)n2)CC1` [Example 512], the IC50 was 0.023 µM on human PI3Kδ enzyme, more than 10 µM on Human PI3Kα and 0.01 µM in experiment [1].

Regarding `COC[C@@H]1CCCN1[C@H]1CC[C@H](CNc2cc(-n3c(C(F)F)nc4ccccc43)nc(N3CCOCC3)n2)CC1` [Example 513], the figures for the half-inhibitory concentration (IC50) (against human PI3Kδ enzyme; at Human PI3Kα; in experiment [1]) were 0.0035 µM, 3.1 µM and 0.00064 µM, respectively.

Take `FC[C@@H]1CCCN1[C@H]1CC[C@H](CNc2nc(N3CCOCC3)cc(-n3c(C(F)F)nc4ccccc43)n2)CC1` [Example 515]: the IC50 at human PI3Kδ enzyme was 0.006 µM; on Human PI3Kα, 1.2 µM; in experiment [1] it was 0.0041 µM.

For `FC(F)c1nc2ccccc2n1-c1cc(NC[C@H]2CC[C@H](N3CCC[C@H]3CN3CCCC3)CC2)nc(N2CCOCC2)n1` [Example 527], the half-inhibitory concentration (IC50) against human PI3Kδ enzyme worked out at 0.014 µM; on Human PI3Kα it was 5.7 µM; in experiment [1], 0.0028 µM.

On to `FC[C@@H]1CCN1[C@H]1CC[C@H](CNc2cc(-n3c(C(F)F)nc4ccccc43)nc(N3CCOCC3)n2)CC1` [Example 539], for which the results for the IC50 (against human PI3Kδ enzyme; on Human PI3Kα; in experiment [1]) were 0.0076 µM, 2.2 µM and 0.00084 µM, respectively.

For `C[C@@H]1COCCN1[C@H]1CC[C@H](CNc2cc(-n3c(C(F)F)nc4ccccc43)nc(N3CCOCC3)n2)CC1` [Example 546], the values for the IC50 (against human PI3Kδ enzyme; at Human PI3Kα; in experiment [1]) were 0.05 µM, 5.5 µM and 0.0022 µM, respectively.
